What all share (type): cell-based, human
The test system of one test is ribosomal protein. In words: Acetyl-lysine western blot of ribopellets (ribosomal protein acetylation). The settings on record: SKBR3 cells; for ribosomal protein acetylation, including the band that co-migrates with RPL24: western blot of ribopellets (FIG. 4c,d). As for the experimental part: (§1) Previous studies have shown that pan-inhibitors of class I and II histone deacetylases, like TSA, can rapidly destabilize a number of oncogenic transcripts including HER2 in a cycloheximide-dependent manner (FIG. 9). […] Thus, SKBR3 cells were treated with TSA to evaluate polysome protein acetylation and determine if, similar to RPL24 depletion, histone deacetylase inhibition can affect ribosome assembly dynamics. To detect early (2 h) ribosome or polysome acetylation following histone deacetylase inhibition treatment (1 μM TSA), SKBR3 polysomes were isolated using a discontinuous sucrose gradient as previously described. […] Mass spectrometry studies indicate that 15 ribosomal proteins, 11 large subunit proteins (RPL24 included) and 4 small subunit proteins, underwent at least a two-fold induction in acetylation following 2 h or 6 h TSA treatment (1 μM) (FIG. 4b, FIG. 10a-q).
(§2) Like TSA, the HDAC6 (class IIb)-selective inhibitors, Tubacin and Compound 101, as well as HDAC6 siRNA, all induce tubulin acetylation as expected as well as ribosomal protein acetylation, including the band that co-migrates with RPL24 (FIG. 4c,d, indicated by arrows). […] Thus, the tubulin acetylating effects of pan-histone deacetylase inhibition, known to be mediated by inhibition or knockdown of HDAC6, correspond to the observed ribosome and RPL24 acetylation responses induced by TSA.
(§3) Cells are lysed in RIPA buffer (10 mM Tris-HCL (pH 8.0), 1 mM EDTA, 0.5 mM EGTA, 1% triton X-100, 0.1% sodium deoxycholate, 0.1% SDS, 140 mM NaCl, 20 mM NaF, Complete EDTA-free protease inhibitor tablets (Roche Diagnostics Corp., Basel, Switzerland) and the phosphatase inhibitor cocktail PhosSTOP (Roche)), the latter two as indicated by the manufacturer's protocol. Equal amounts of protein are diluted in 2× sample buffer. Immunoblots on PVDF (Polyvinyldene Fluoride) membranes are blocked with nonfat milk in tris-buffered saline with 0.05% tween-20 (TBST). The following antibodies are incubated with membranes in 5% nonfat milk in TBST: RPL24 (Proteintech, Chicago, Ill.), Cyclin D1, Rack1, RPL4 (Santa Cruz Biotechnology, Santa Cruz, Calif.), NBS1, GAPDH (EMD Millipore Corporation, Chicago, Ill.), Survivin, β-tubulin, acetyl-lysine, eIF6, acetyl-H2B, H2B, (Cell Signaling Technology, Boston, Mass.), acetyl-tubulin, tubulin (Sigma Aldrich (St. Louis, Mo.))
Cells, plated at […] confluency, are treated as indicated. After treatment, cells are treated with 50 μg/ml cycloheximide for 15 minutes. Cells are lysed with a buffer containing 10 mM HEPES, 10 mM KCl, 75 mM NaCl, 10 mM MgCl2, 0.35% NP40, pH 7.9 supplemented with Complete EDTA-free protease inhibitor tablets, PhosSTOP phosphatase inhibitor tablets (Roche) per manufacturer's instructions, 50 μg/ml cycloheximide, SUPERase RNase inhibitors (Life Technologies) per manufacturer's instructions, 15 μM TSA, and 5 mM nicotinimide to inhibit histone deacetylases. Supernatants are collected as cytoplasmic preparations. Where indicated, pellets containing nuclei are resuspended in RIPA buffer (described above). The suspension is spun at 13,000 rpm for 5 min and supernatants are collected as nuclear preparations.
Ribosomes are subsequently isolated from cytoplasmic preparations as described previously. Briefly, lysates are layered on top of a 12% and 33% discontinuous sucrose gradient and spun at 38,000 rpm for 2 h. The resulting polysome pellet is then resuspended, stripped of RNA with acetic acid, and then pelleted with acetone. The pellet is then resuspended in 8 M urea, 2% CHAPS, and 25 mM dithiothreitol (DTT).
FIG. 4: Ribosomal protein acetylation is induced by histone deacetylase inhibition. (a-c) SKBR3 cells were treated with the indicated drugs for the indicated period of time. (d) SKBR3 cells were transfected with the indicated siRNAs and allowed to incubate for 72 hours. (a, c, d). The indicated western blots were performed in ribopellets, total cytoplasmic lysates, or nuclear extracts. […]

Another test has as its system histone H2B. Put plainly: Western blot for histone H2B acetylation in SKBR3 cells. The following applies: western blot (FIG. 4c).
Text: as §2
Cells are lysed in RIPA buffer (10 mM Tris-HCL (pH 8.0), 1 mM EDTA, 0.5 mM EGTA, 1% triton X-100, 0.1% sodium deoxycholate, 0.1% SDS, 140 mM NaCl, 20 mM NaF, Complete EDTA-free protease inhibitor tablets (Roche Diagnostics Corp., Basel, Switzerland) and the phosphatase inhibitor cocktail PhosSTOP (Roche)), the latter two as indicated by the manufacturer's protocol. Equal amounts of protein are diluted in 2× sample buffer. Immunoblots on PVDF (Polyvinyldene Fluoride) membranes are blocked with nonfat milk in tris-buffered saline with 0.05% tween-20 (TBST). […]

For the next test, the system named is tubulin. Put plainly: Western blot for tubulin acetylation in SKBR3 cells. The following applies: western blot (FIG. 4c,d).
Text: as §2, §3
FIG. 4: Ribosomal protein acetylation is induced by histone deacetylase inhibition. (a-c) SKBR3 cells were treated with the indicated drugs for the indicated period of time. (d) SKBR3 cells were transfected with the indicated siRNAs and allowed to incubate for 72 hours. (a, c, d). The indicated western blots were performed in ribopellets, total cytoplasmic lysates, or nuclear extracts. (b) Mass spectrometry was performed on ribopellets as described in materials and methods and in FIG. 6. The fold change in acetylated peptide to total peptide case by TSA treatment is plotted. Only proteins that underwent at least a two-fold induction upon TSA treatment are shown. Error bars represent the standard error of the mean for three biological replicates.

The subject of the next test is HER2 mRNA. Put plainly: Northern blot of HER2 transcript levels. The following applies: SKBR3 cells, cycloheximide 50 μg/ml, 6 h with TSA 1 μM. As for the experimental part:
as §1
Cells are harvested and RNA is extracted using Trizol (Life Technologies) per manufacturer's protocol. Northern blots are performed as previously described. Briefly, RNA is then electrophoresed into 1% agarose-formaldehyde gels and transferred onto PVDF membranes. Membranes are then hybridized with ^32P-labelled cDNA probes for HER2 or GAPDH, washed, and visualized by autoradiography.
SKBR3 cells were treated with TSA (1 μM, 6 h) and/or cycloheximide (CX, 50 μg/ml, 6 h) or with the respective vehicle controls. […]

For the compound `Nc1ccccc1NC(=O)c1ccc(CNC(=O)OCc2cccnc2)cc1` [Entinostat], in the test on ribosomal protein (even at a dose of 20 μM (FIG. 4c)), the ribosomal protein acetylation entry is given as “does not alter”. Moreover, the “histone H2B acetylation” value with histone H2B was “induces”. Moreover, in the test on tubulin, the tubulin acetylation entry is given as “without acetylating tubulin”.

For `O=C(CCCCCCC(=O)Nc1ccc([C@H]2O[C@@H](CSc3nc(-c4ccccc4)c(-c4ccccc4)o3)C[C@@H](c3ccc(CO)cc3)O2)cc1)NO` [Tubacin], the “ribosomal protein acetylation, including the band that co-migrates with RPL24” value in the test with ribosomal protein is reported as “induce”. In addition, the tubulin acetylation result with tubulin is “induce”.

For `O=C(NO)c1cnc(NC2(c3cccc(F)c3)CCCCC2)nc1` [Compound 101], in the test with ribosomal protein, the “ribosomal protein acetylation, including the band that co-migrates with RPL24” value is “induce”. Besides, in the test on tubulin, the tubulin acetylation result is reported as “induce”.

Turning to `C[C@@H]1C[C@@H]([C@H](O)CC2CC(=O)NC(=O)C2)C(=O)[C@@H](C)C1` [cycloheximide], the “effect on TSA-induced HER2 mRNA decay” value in the test with HER2 mRNA was “abrogated”.

Values taken from patent publication US20150359794A1, “IMPAIRMENT OF THE LARGE RIBOSOMAL SUBUNIT PROTEIN RPL24 BY DEPLETION OR ACETYLATION” (Buck Institute for Research on Aging, priority 2014, published 2015).
